This is an account of results in patent US20030121069A1, “Disruption of the phosphodiesterase 10 gene” (Pfizer Inc., priority 2001, published 2003).

What is called Km is the concentration of substrate that gives half-maximal velocity.

Where two headings read alike, the source gives them in different places.

Series [1] relates to PDE10A. The settings on record: cited from earlier work.
Series [2] deals with T1, PDE10A (Mus musculus, UniProt Q8CA95).
T1 construct: from tissue; host or cells: mouse brain in vivo (striatum and cortex); DBA/1LacJ-derived PDE10A +/+ and −/− mice
T1 sequence (Q8CA95 1-779 isoform Q8CA95-2): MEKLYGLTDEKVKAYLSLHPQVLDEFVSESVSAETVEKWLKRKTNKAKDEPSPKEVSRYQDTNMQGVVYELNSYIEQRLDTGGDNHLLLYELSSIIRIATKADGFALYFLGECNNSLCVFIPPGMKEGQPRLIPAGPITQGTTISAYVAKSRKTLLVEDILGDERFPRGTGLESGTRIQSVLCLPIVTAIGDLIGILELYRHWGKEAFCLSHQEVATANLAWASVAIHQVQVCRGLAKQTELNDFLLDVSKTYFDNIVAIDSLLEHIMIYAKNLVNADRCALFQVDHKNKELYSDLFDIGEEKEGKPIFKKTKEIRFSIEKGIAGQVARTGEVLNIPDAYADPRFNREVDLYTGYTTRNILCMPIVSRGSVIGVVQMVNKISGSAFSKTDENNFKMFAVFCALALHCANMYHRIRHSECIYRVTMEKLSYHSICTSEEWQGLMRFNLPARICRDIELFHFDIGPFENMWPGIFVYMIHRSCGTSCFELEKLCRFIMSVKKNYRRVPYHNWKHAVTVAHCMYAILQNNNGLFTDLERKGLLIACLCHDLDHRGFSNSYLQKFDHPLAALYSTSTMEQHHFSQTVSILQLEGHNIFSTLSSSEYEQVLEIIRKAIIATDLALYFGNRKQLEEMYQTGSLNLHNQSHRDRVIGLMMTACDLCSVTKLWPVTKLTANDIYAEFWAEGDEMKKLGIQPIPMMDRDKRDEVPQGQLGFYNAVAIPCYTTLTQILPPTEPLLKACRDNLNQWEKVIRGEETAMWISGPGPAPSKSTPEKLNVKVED
In words: cGMP level in striatal and cortical extracts of PDE10A+/+ and −/− mice after Papaverine (enzyme immunoassay). The settings on record: PDE10A+/+ mice, 32 mg/kg intraperitoneally, 15 minutes, vs vehicle. The class given is in vivo. The protocol:
(§1) Fifteen minutes afterwards, mice were euthanized by focused-beam microwave irradiation of the head (2 second exposure in a Litton Systems 70/50 microwave, model BN-K2, General Medical Engineering Corp., Peabody, Mass.) to prevent enzymatic degradation of cyclic nucleotides. Striatal and cortical regions were isolated and stored at −80° C. until analysis. Samples were homogenized in 0.5 N HCl and then centrifuged at 20,000×g for 30 minutes. The cGMP concentrations in the supernatants were determined using enzyme immunoassay kits (Cayman Chemical, Ann Arbor, Mich., USA) according to the manufacturer's instructions.

For series [3], the system named is PDE10A. Described as above. As to conditions: PDE10A −/− mice, 32 mg/kg intraperitoneally, 15 minutes, vs vehicle. The class given is in vivo. The procedure: as §1
The subject of a further series is PDE10A+/+ and −/− mice. Description: Conditioned avoidance responding in PDE10A+/+ and −/− mice. The settings on record: for ED50: Mus musculus. From the text: In the conditioned avoidance paradigm, animals are trained to move from a dark chamber in a shuttle box to a lighted chamber upon presentation of a conditioned stimulus in order to avoid a foot shock.
The conditioned avoidance shuttle chambers consist of individual Plexiglas behavior chambers (Coulbourn Instruments); each chamber divided by a guillotine door into two sides enclosed in sound attenuating cabinets. The Plexiglas chambers are fitted with metal grid floors, which are equipped with scrambled/constant current shockers. Mice are trained to avoid the onset of footshock (0.6 miliampere) by moving to the opposite side of the chamber upon activation of house lights, que lights, and the opening of the guillotine door, all of which occur 5 seconds prior to the foot shock. A computer program is used to record the number of successful avoidance responses (animals cross before onset of shock), as well as the number of escapes (where animals receive the foot shock and then cross), escape failures (where animals receive the foot shock yet still fail to cross), and the latencies to avoid (max 5 sec.) or escape (max.10 sec.) Thirty trials are completed per daily session, and inter-trial intervals are 15 seconds with the guillotine door closed. […] Vehicle treatment is performed one day every week and statistical analysis is done comparing each drug treatment on separate days vs. the vehicle treatment that week. Testing is performed during the lights on period of the light/dark cycle, typically between 8 am and 11 am. The data is analyzed using a paired t-test.

The mark [4] stands for this setting: read-out: ED50, inhibition of conditioned avoidance responding, PDE10A+/+ mice.

As for `Nc1nc2c(ncn2[C@@H]2O[C@@H]3COP(=O)(O)O[C@H]3[C@H]2O)c(=O)[nH]1` [cGMP, cyclic guanine 3′5′-monophosphate], the “Vmax for cGMP over cAMP” value in the series on PDE10A [1] is on record as “approximately 5 fold”. The Michaelis-Menten constant (Km) with PDE10A [1] (read-out: Km (affinity of PDE10A for substrate)) was 3 µM.
Regarding `COc1ccc(Cc2nccc3cc(OC)c(OC)cc23)cc1OC` [Papaverine], at PDE10A [2], the “cGMP level from striatal extracts” value is reported as “more than two fold elevation” and the “cGMP level in cortical extracts” value is “no effect”. Also, the “striatal cGMP level” value in the series with PDE10A [3] was “only a slight increase”. Also, in the series with PDE10A+/+ and −/− mice (setting [4]), the ED50 is 20.7 mg/kg. For the same compound, the “inhibition of conditioned avoidance responding” value with PDE10A+/+ and −/− mice (PDE10A −/− mice, doses up to 56 mg/kg) is “failed to inhibit”. Also, the “effect on escape failures” value in the series on PDE10A+/+ and −/− mice (PDE10A+/+ mice, highest dose tested (56 mg/kg)) was “no effect”.
Consider `O=C(CCCN1CCC(O)(c2ccc(Cl)cc2)CC1)c1ccc(F)cc1` [Haloperidol], for which the ED50 with PDE10A+/+ and −/− mice (read-out: ED50, inhibition of conditioned avoidance responding, PDE10A −/− mice) was found to be 0.29 mg/kg; with PDE10A+/+ and −/− mice (setting [4]), 0.21 mg/kg.
